The values below come from US6509362B2, “N-phenylamide and N-pyridylamide derivatives, method of preparing them and pharmaceutical compositions containing them” (Merck Patent Gesellschaft mit Beschraenkter Haftung, priority 1997, dated 2003).

Data set [1] has as its system hepatic ACAT. The experiment in a line: Test A: in vitro hepatic ACAT inhibition in rat liver microsomes. The class given is biochemical, rat (male Wistar). The conditions noted are these: 14C-oleyl coenzyme A, read-out: IC50 (concentration of compound inhibiting the ACAT activity by 50%). As to the method:
Test A: measurement of in vitro hepatic ACAT inhibition in rats: male Wistar rats weighing 220-250 g were sacrificed by cervical dislocation; the liver was removed and homogenised to prepare the microsomal fraction by ultracentrifugation; these microsomes were incubated with ^14C-oleyl coenzyme A according to the method described by P. J. GILLIES et al., Exp. and Mol. Pathol. 1986, 44, 329-339; lipids were extracted from the incubate with a methanol-chloroforme mixture and ^14C-oleyl cholesterol was separated by TLC; the latter represented the measurement of the ACAT activity and the results were expressed in inhibitory concentration 50 (IC50) representing the concentration of compound inhibiting the ACAT activity by 50%.

The subject of data set [2] is intestinal absorption of cholesterol. The experiment in a line: Test B: intestinal absorption of cholesterol in rats. In kind it is in vivo, rat (male Wistar). The note with it: Rattus norvegicus; per os, rats fasted 24 h, triton WR 1339 IV, 3H-cholesterol in serum; read-out: ED50 (quantity of compound inhibiting the intestinal absorption of cholesterol by 50%). How it is done:
Test B: measurement of intestinal absorption of cholesterol in rats; […]; one hour later, […]; three hours later, 1 ml of blood was taken from the retro-orbital sinus: the blood radioactivity determined on 0.1 ml of serum represented the measurement of the absorption of ^3H-cholesterol. The results were expressed in effective dose 50 (ED50) in mg per kg of animal and represented the quantity of compound inhibiting the intestinal absorption of cholesterol by 50%.

The subject of data set [3] is male Wistar rat fed a 2.5% cholesterol enriched diet. The experiment in a line: Test C: hypercholesterolemia model, cholesterol-fed rat. In kind it is in vivo. The note with it: dose 0.78 mg/kg, oral. As to the method: (§1) Test C: hypercholesterolemia model; claim 1 compounds were tested by oral route in animals subjected to a cholesterol-rich diet;
For data set [4], the system named is rabbit fed a 0.5% cholesterol enriched diet. The experiment in a line: Test C: hypercholesterolemia model, cholesterol-fed rabbit. The class given is in vivo. The note with it: dose 0.1 mg/kg, oral. As to the method: as §1

Turning to `CSc1cc(C)nc(SC)c1NC(=O)CC1=C(c2ccc(F)cc2)c2ccccc2OC1` [Example 6], the melting point (usually the temperature, or range, at which the solid turns liquid) is 234 to 236 °C. Besides, the IC50 in data set [1] was 31 nM. The ED50 (usually the dose at which the effect has come halfway, by size or by number of responders) in data set [2] turned out to be 0.023 mg/kg.

In the case of `CSc1cc(C)nc(SC)c1NC(=O)CC=CC1=C(c2ccccc2)c2ccccc2OC1` [Example 17, N-[2,4-Dimethylthio-6-methyl-3-pyridyl]-4-(4-phenyl-2H-3-benzo[b]pyranyl)but-3-enamide], the melting point lay in the range of 204 to 206 °C.

Consider `CSc1cc(C)nc(SC)c1NC(=O)CC1=C(c2ccccc2)c2ccccc2CC1` [Example 4], for which the melting point lay in the range of 218 to 220 °C. Further, the IC50 in data set [1] is 74 nM. Also, the ED50 in data set [2] came to 0.038 mg/kg.

In the case of `CSc1cc(C)nc(SC)c1NC(=O)CC1=C(c2ccccc2)c2ccccc2OC1` [Example 1, N-[2,4-Dimethylthio-6-methyl-3-pyridyl]-2-(4-phenyl-2H-3-benzo[b]pyranyl)acetamide], the IC50 in data set [1] was found to be 94 nM. In data set [2], the ED50 was 0.005 mg/kg. In data set [3] (2.5% cholesterol diet for 8 days, treated for 2 days), the total cholesterol lowered came out at 50%. Besides, the “lipoprotein fraction on which the effect was observed” value in data set [3] (cholesterol-fed rat) and in data set [4] (cholesterol-fed rabbit) was “mainly observed on VLDL” each time. In data set [4] (0.5% cholesterol diet for 15 days, treated simultaneously), the total cholesterol decreased was 70%.
